A short description of test [1]: Cytotoxicity against human Hep3B cells measured after 48 hrs by MTT assay. The format is functional, cell-based, Hep 3B2. (In general: Formazan colour is commonly taken as a measure of viable cells.)
Test [2] relates to HepG2. Kind of test: Cytotoxicity against human adriamycin-resistant HepG2 cells measured after 48 hrs by MTT assay. The format is functional, cell-based. As to conditions: HepG2, 48 h.
The test system of test [3] is HepG2. Kind of test: Cytotoxicity against human HepG2 cells measured after 48 hrs by MTT assay. As to conditions: HepG2, 48 h. The format is functional, cell-based.

SMILES strings stand for the structures. A value given as a limit tells only on which side of the number the result lay.

Experimental findings from ChEMBL document CHEMBL2311415, “Cytotoxic quassinoids from Ailanthus altissima” (Bioorg Med Chem Lett, 2013) are described below.

For the compound `CC[C@](C)(O)C(=O)O[C@H]1C(=O)O[C@@H]2C[C@H]3C(C)=C[C@H](O)[C@@H](O)[C@]3(C)[C@H]3[C@]4(O)OC[C@]32[C@@H]1[C@@H](C)[C@H]4O` [GLAUCARUBIN], the IC50 in test [1] was 23.5 µM; with HepG2 [2], > 50 µM; in the test on HepG2 [3] it was 35.6 µM.

With `CC1=CC(=O)[C@]2(O)[C@@]3(O)C(=O)[C@@H]4[C@]5(CO)[C@H]6CC(=O)O[C@@H]5C[C@@]1([C@@]42C)[C@]63C` [SHINJULACTONE C], the IC50 (in test [1]; with HepG2 [2]; with HepG2 [3]) was > 50 µM in each case.

On to `CC1=CC(=O)[C@@H](O)[C@]2(C)[C@H]3[C@@]4(O)OC[C@@]35[C@@H](C[C@@H]12)OC(=O)C[C@H]5[C@@H](C)[C@H]4O` [CHAPARRINONE], for which the IC50 in test [1] was 2.17 µM; in the test with HepG2 [2], > 50 µM; in the test on HepG2 [3], 1.2 µM.

For the compound `C=C1[C@@H](O)[C@@]2(O)OC[C@@]34[C@H]1[C@@H](OC(=O)C(C)CC)C(=O)O[C@@H]3C[C@H]1C(C)=C[C@H](O)[C@@H](O)[C@]1(C)[C@@H]24` (stereo partly specified) [ALTISSINOL B], the IC50 was 2.36 µM in test [1], > 50 µM with HepG2 [2] and 1.22 µM in the test on HepG2 [3].

Consider `CC(=O)O[C@@H]1C(=O)[C@H](C)[C@@H]2CC(=O)O[C@@H]3C[C@H]4[C@H](C)C[C@H](O)C(=O)[C@]4(C)[C@@H]1[C@@]32C`, for which the IC50 (in test [1]; in the test on HepG2 [2]; in the test with HepG2 [3]) was > 50 µM in each case.

On to `C/C=C(/C)C(=O)O[C@@H]1[C@H]2C(C)=CC(=O)[C@@H](O)[C@]2(C)[C@H]2[C@@]3(O)OC[C@@]24[C@@H]1OC(=O)C[C@H]4[C@@H](C)[C@H]3O`, for which the IC50 is 0.05 µM in test [1], 16.9 µM with HepG2 [2] and 0.55 µM in the test on HepG2 [3].

Regarding `C=C1[C@@H](O)[C@]2(O)OC[C@@]34[C@H]1[C@@H](OC(=O)[C@](C)(O)CC)C(=O)O[C@@H]3C[C@H]1C(C)=C[C@H](O)[C@@H](O)[C@]1(C)[C@@H]24`, the half-inhibitory concentration (IC50) was 0.98 µM in test [1], 19.6 µM in the test on HepG2 [2] and 1.15 µM in the test with HepG2 [3].

Turning to `C=C1[C@@H](O)[C@@]2(O)OC[C@@]34[C@H]1[C@@H](OC(=O)C(O)(CC)COC(=O)/C(C)=C\C)C(=O)O[C@@H]3C[C@H]1C(C)=CC(=O)[C@@H](O)[C@]1(C)[C@@H]24` (stereo partly specified) [ALTISSINOL A], the results for the IC50 (in test [1]; in the test with HepG2 [2]; in the test on HepG2 [3]) were 0.37 µM, > 50 µM and 0.28 µM, respectively.

Take `COc1cccc2c1C(=O)c1c(O)c3c(c(O)c1C2=O)C[C@@](O)(C(=O)CO)C[C@@H]3O[C@H]1C[C@H](N)[C@H](O)[C@H](C)O1` [DOXORUBICIN]: the IC50 was 0.29 µM in test [1] and 85.5 µM with HepG2 [2].

Regarding `C[C@@H]1C[C@H](O)C(=O)[C@]2(C)[C@H]3[C@H](O)C(=O)[C@H](C)[C@@H]4CC(=O)O[C@H](C[C@@H]12)[C@]34C` [AMAROLIDE], the IC50 (in test [1]; in the test on HepG2 [2]; in the test on HepG2 [3]) was > 50 µM each time.

For the compound `C[C@H]1[C@H](O)C(=O)[C@@H]2[C@@]3(C)[C@H](O)[C@@H](O)C[C@@H](C)[C@@H]3C[C@H]3OC(=O)C[C@@H]1[C@@]23C` [CHAPARROLIDE], the IC50 (in test [1]; in the test with HepG2 [2]; with HepG2 [3]) was > 50 µM in each case.

As to `C/C=C(/C)C(=O)O[C@@H]1[C@H]2C(C)=C[C@H](O)[C@@H](O)[C@]2(C)[C@H]2[C@@]3(O)OC[C@@]24[C@@H]1OC(=O)C[C@H]4[C@@H](C)[C@H]3O`, the half-inhibitory concentration (IC50) in test [1] was 2.43 µM; in the test on HepG2 [2] it was > 50 µM; with HepG2 [3], 10.5 µM.

Take `C=C1[C@H](O)[C@]2(O)OC[C@]34[C@H]2[C@@]2(C)[C@H](O)[C@@H](O)C=C(C)[C@@H]2C[C@H]3OC(=O)C[C@@H]14` [SHINJULACTONE A]: the IC50 in test [1] was 8.01 µM; in the test on HepG2 [2], > 50 µM; with HepG2 [3], 4.67 µM.

For `CC1=CC(=O)O[C@@H]1[C@@]1(C)C[C@H]2OC(=O)C[C@H]3[C@@H](C)C(=O)C(O)=C1[C@@]23CO` [SHINJULACTONE B], the IC50 (in test [1]; in the test on HepG2 [2]; in the test on HepG2 [3]) was > 50 µM in each case.

In general, IC50 refers to the concentration that inhibits the measured activity by half.
